# Measurements: PMC7238120, “Strong and Selective Inhibitory Effects of the Biflavonoid Selamariscina A against CYP2C8 and CYP2C9 Enzyme Activities in Human Liver Microsomes” (Pharmaceutics, 2020)
# pIC50: −log10 of the molar value.
# Key:
# [1] = molecular target: T1, CYP2A6 (Homo sapiens, UniProt P11509); assay: Inhibition of CYP2A6 (coumarin) activity in pooled human liver microsomes, cocktail incubation; type: in vitro ADME; settings: substrate coumarin 5 µM; pooled HLMs; read-out: IC50, P450 2A6
# T1 construct: incubation mixtures containing pooled human liver microsomes (HLMs, XTreme 200, XenoTech); tissue XenoTech XTreme 200; host or cells: pooled human liver microsomes
# T1 sequence (P11509 1-494): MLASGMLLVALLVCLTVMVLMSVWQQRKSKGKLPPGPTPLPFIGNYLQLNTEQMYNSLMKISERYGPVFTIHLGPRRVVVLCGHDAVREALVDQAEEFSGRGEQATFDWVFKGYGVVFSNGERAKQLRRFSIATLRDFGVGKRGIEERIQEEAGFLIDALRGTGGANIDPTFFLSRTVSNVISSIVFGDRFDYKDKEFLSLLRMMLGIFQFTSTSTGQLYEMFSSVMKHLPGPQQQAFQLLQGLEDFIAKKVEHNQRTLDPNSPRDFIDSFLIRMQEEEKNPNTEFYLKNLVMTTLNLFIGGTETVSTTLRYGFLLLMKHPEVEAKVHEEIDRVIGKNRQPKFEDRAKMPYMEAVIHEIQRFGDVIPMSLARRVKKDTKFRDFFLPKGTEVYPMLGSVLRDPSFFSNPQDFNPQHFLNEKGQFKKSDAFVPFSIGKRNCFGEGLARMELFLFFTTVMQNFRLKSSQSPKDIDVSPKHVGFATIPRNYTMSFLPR
# Description: (§1) The inhibitory potential of the five biflavonoids on the metabolism of nine P450 probe substrates was evaluated using previously developed methods with minor modifications. Biflavonoids were dissolved in methanol. The final concentration of methanol in the incubation mixture was 1.0% (v/v). We used these P450 probe substrates: phenacetin for CYP1A2, coumarin for CYP2A6, bupropion for CYP2B6, amodiaquine for CYP2C8, diclofenac for CYP2C9, omeprazole for CYP2C19, dextromethorphan for CYP2D6, chlorzoxazone for CYP2E1 and midazolam for CYP3A (Table 1). The incubation mixtures containing pooled human liver microsomes (HLMs, XTreme 200, XenoTech), P450 probe substrates, and inhibitor (0~20 µM) were pre-incubated at 37 °C for 5 min. The concentration range of the inhibitor varied (0, 0.002, 0.005, 0.02, 0.05, and 0.2 µM for CYP2C8; 0, 0.02, 0.05, 0.2, 0.5, and 2 µM for CYP2C9; 0, 0.5, 2, 5, 10, and 20 µM for other P450 isoforms). After pre-incubation, a reduced nicotinamide adenine dinucleotide phosphate (NADPH) generation system containing 1 unit/ml G6PDH, 1.3 mM β- nicotinamide adenine dinucleotide phosphate (β- NADP^+), 3.3 mM MgCl2, and 3.3 mM G6P was added to initiate a reaction, and further incubated for 10 min at 37 °C. The reaction was stopped by adding 50 μL of ice-cold acetonitrile containing 7 nM trimipramine (internal standard, IS). After centrifugation at 18,000 g (5 min, 4 °C), aliquots of supernatants were analyzed by LC–MS/MS (Shimadzu LCMS 8060 system, Shimadzu, Kyoto, Japan). All microsomal incubations were conducted in triplicate.
# (§2) All metabolites and the IS were separated on a Kinetex XB-C18 column (100 × 2.10 mm, 2.6 μm, 100 Å; Phenomenex, Torrance, CA, USA) and analyzed using a Shimadzu LCMS 8060 triple-quadrupole mass spectrometer coupled with a Nexera X2 ultra high-performance liquid chromatography system (Shimadzu, Kyoto, Japan) equipped with an electrospray ionization interface. The mobile phase consisted of 0.1% formic acid in water (A) and 0.1% formic acid in acetonitrile (B). The elution condition was set as 8% B (0–0.5 min), 8%→60% B (0.5–5 min), 60% B (5–6 min), 60%→8% B (6–6.1 min) and 8% B (6.1–9 min) for the analysis of metabolites of P450 probe substrates and set as 0%→40% B (0–1 min), 40%→50% B (1–5 min), 50%→0% B (5–5.1 min), and 0% B (5.1–8 min) for the analysis of metabolites of UGT probe substrates. The flow rate was 0.2 mL/min. Electrospray ionization was performed in positive-ion mode at 4000 V or in negative-ion mode at −3500 V. The optimum operating conditions were determined as follows: vaporizer temperature, 300 °C; capillary temperature, 350 °C; collision gas (argon) pressure, 1.5 mTorr. Quantitation was conducted in selected reaction monitoring (SRM) modes with the precursor-to-product ion transition for each metabolite (Table 1 and Table 2).
# (§3) We analyzed the data with Shimadzu LabSolution LC–MS software. The IC50 values were calculated by WinNonlin software (Pharsight, Mountain View, CA, USA). The type of inhibition and the apparent kinetic parameters for inhibitory activity (Ki) were determined by following several criteria: visual inspection of Dixon plots, Lineweaver–Burk double reciprocal plots, and secondary plots of Lineweaver–Burk plots versus biflavonoid concentrations, the size of the sum of squares of the residuals, Akaike Information Criteria values, the S.E. and 95% confidence interval of the parameter estimates from the nonlinear regression analysis using the WinNonlin software. The models tested included competitive, competitive partial, noncompetitive, noncompetitive partial, uncompetitive, uncompetitive partial, and mixed-type inhibition.
# [2] = molecular target: T2, CYP2E1 (Homo sapiens, UniProt P05181); assay: Inhibition of CYP2E1 (chlorzoxazone) activity in pooled human liver microsomes; type: in vitro ADME; settings: substrate chlorzoxazone 50 µM; pooled HLMs; read-out: IC50, P450 2E1
# T2 construct: incubation mixtures containing pooled human liver microsomes (HLMs, XTreme 200, XenoTech); tissue XenoTech XTreme 200; host or cells: pooled human liver microsomes
# T2 sequence (P05181 whole entry): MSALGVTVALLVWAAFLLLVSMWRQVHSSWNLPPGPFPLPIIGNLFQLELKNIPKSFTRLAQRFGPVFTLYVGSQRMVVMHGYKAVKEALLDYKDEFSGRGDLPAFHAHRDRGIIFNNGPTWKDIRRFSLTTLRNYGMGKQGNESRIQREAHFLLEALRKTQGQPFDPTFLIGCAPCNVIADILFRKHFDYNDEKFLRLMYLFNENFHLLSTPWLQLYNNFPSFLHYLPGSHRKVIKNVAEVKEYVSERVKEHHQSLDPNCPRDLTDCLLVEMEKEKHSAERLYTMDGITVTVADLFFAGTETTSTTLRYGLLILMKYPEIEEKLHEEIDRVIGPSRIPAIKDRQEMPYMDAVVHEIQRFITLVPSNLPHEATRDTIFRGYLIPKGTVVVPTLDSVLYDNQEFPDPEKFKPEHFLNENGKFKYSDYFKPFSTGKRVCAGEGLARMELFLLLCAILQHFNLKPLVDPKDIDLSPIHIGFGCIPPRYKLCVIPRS
# Description: as §1, §2, §3
pIC50 [1],pIC50 [2],Compound
< 4.70,5.64,O=c1cc(-c2ccc(O)cc2)oc2c(-c3c(O)cc(O)c4c(=O)cc(-c5ccc(O)cc5)oc34)c(O)cc(O)c12 [cupressuflavone]
4.93,5.54,O=c1cc(-c2ccc(O)c(-c3c(O)cc4oc(-c5ccc(O)cc5)cc(=O)c4c3O)c2)oc2cc(O)cc(O)c12 [robustaflavone]
4.94,< 4.70,O=C1CC(c2cc(-c3c(O)ccc4c(=O)cc(-c5ccc(O)cc5)oc34)c(O)cc2O)Oc2cc(O)cc(O)c21 (stereo not drawn) [selamariscina A]

# The remaining lines, values behind:
Compound,pIC50 [1],pIC50 [2]
O=c1cc(-c2ccc(O)c(-c3c(O)cc(O)c4c(=O)cc(-c5ccc(O)cc5)oc34)c2)oc2cc(O)cc(O)c12 [amentoflavone],4.92,5.48
"CC(C)(O)c1ccccc1CC[C@@H](SCC1(CC(=O)O)CC1)c1cccc(/C=C/c2ccc3ccc(Cl)cc3n2)c1 [montelukast, reference compound]",< 4.30,< 4.30
O=c1cc(-c2ccc(O)c(-c3c(-c4ccc(O)cc4)oc4cc(O)cc(O)c4c3=O)c2)oc2cc(O)cc(O)c12 [taiwaniaflavone],4.97,5.22
